*1 amine or outer side, *2 acyl side, *3 side chain or, on linkers, in order; H or OH if unused. Where a SMILES comes first, the peptide text is derived from it. The star is where a group is joined. X1 = Clc1ccc(-c2cccc(N*)c2)cc1Cl; Suc = O=C(CCC(=O)[*:2])[*:1]; X2 = C(CC1CC1)N*

This test addresses T1, Neutrophil cytosol factor 1 (Homo sapiens, UniProt P14598).
T1 sequence (P14598 whole entry): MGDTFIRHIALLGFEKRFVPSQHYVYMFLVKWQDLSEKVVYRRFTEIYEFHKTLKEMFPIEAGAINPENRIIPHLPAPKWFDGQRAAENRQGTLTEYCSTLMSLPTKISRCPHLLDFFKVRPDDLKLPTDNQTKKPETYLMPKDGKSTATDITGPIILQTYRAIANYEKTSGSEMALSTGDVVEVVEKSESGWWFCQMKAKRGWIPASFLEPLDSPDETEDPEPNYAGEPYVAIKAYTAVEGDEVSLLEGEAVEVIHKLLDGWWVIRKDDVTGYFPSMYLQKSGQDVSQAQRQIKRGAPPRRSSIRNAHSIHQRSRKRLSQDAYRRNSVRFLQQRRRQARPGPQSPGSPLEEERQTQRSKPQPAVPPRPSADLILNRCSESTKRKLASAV
Put plainly: Binding affinity to human N-terminal TEV cleavable 6His tagged p47phox (151-285 residues) assessed as dissociation […] constant by Surface plasmon resonance assay. For orientation: SPR reads the build-up and loss of mass on a sensor chip optically.
Broadly, the Kd is the concentration at which binding is half-saturated. As to `N=C(N)NCCC[C@H](NC(=O)[C@@H]1CCC[C@H]1[C@@H](O)[C@@H]1CCCN1C(=O)[C@@H]1CCCN1C(=O)CCC(=O)Nc1cccc(-c2ccc(Cl)c(Cl)c2)c1)C(=O)NCCC1CC1`, the Kd came out at 312 nM.
To `N=C(N)NCC1CCN(C(=O)[C@@H]2CCCN2C(=O)[C@@H]2CCCN2C(=O)[C@@H]2CCCN2C(=O)CCC(=O)Nc2cccc(-c3cnco3)c2)CC1` belongs 5710 nM.
Then `N=C(N)NCCC[C@H](NC(=O)[C@@H]1CCCN1C(=O)[C@@H]1CCC[C@H]1[C@@H](O)[C@@H]1CCCN1C(=O)CCC(=O)Nc1cccc(-c2ccc(Cl)c(Cl)c2)c1)C(=O)NCCC1CC1`, with > 30000 nM; and `C[C@H](NC(=O)[C@@H]1CCCN1C(=O)[C@@H]1CCCN1C(=O)[C@H](CCCNC(=N)N)NC(=O)[C@@H]1CCCN1C(=O)[C@@H]1CCCN1C(=O)[C@@H]1CCCN1C(=O)[C@H](CC(N)=O)NC(=O)[C@H](CO)NC(=O)[C@@H]1CCCN1C(=O)[C@@H]1CCCN1)C(=O)O` (H-PPSNPPPRPPA-OH), with 214 nM; and `N=C(N)NCCC[C@H](NC(=O)[C@@H]1CCCN1C(=O)[C@@H]1CCCN1C(=O)[C@@H]1CCCN1C(=O)CCC(=O)Nc1cccc(-c2ccc(Cl)c(Cl)c2)c1)C(=O)NCCC1CC1` ({X1-Suc}-PPPR-X2), with 43 nM.

(Values after ChEMBL document CHEMBL5131545, “Targeting NOX2 via p47/phox-p22/phox Inhibition with Novel Triproline Mimetics” (ACS Med Chem Lett, 2022).)
